Ends that are not written are not given here.
How the values were obtained:
[1] = 31P NMR of peptide/lipid II mixtures; assay type: binding; settings: dimethyl sulfoxide
[2] = cited from earlier work

ITSISLCTPGC (also: bicyclic or more (positions not given here)) [nisin A]
direction of shift of the new 31P NMR resonances (in words) ([1]; lipid II mixed with peptide): both new resonances arising in the nisin/lipid II spectra were shifted upfield | binding to lipid II by 31P NMR (in words) ([1]; two new 31P resonances): both compounds bind to lipid II | pyrophosphate 31P peak shift upon nisin binding (in words) ([2]; 31P NMR, dimethyl sulfoxide): the pyrophosphate peaks shift upfield upon nisin binding | binding to lipid II (in words) [2]: binds to the small molecular weight metabolite lipid II
